Laboratory results reported in US8758777B2, “Pharmaceutical compositions comprising water-soluble sulfonate-protected nanoparticles and uses thereof” (Bar-Ilan University, priority 2010, dated 2014).

System: wild-type HSV-1 McIntyre strain
Test: Antiviral assay (plaque reduction) in Vero cells
Type: cell-based, herpes simplex virus-1 (HSV-1)
Settings: 50-1000 μg/ml; 80 PFU; 48 hours
Protocol: Antiviral assay: The virus used was the wild-type HSV-1 McIntyre strain. For the inhibition experiments, 7×10^4 Vero cells/well were grown in 24 well plates.
Cell monolayers were infected with HSV-1 in the presence or absence of the nanoparticles, as described in the antiviral assay in the Experimental, and observed for the presence of plaques after 48 hours. Plaque formation was obtained by the addition of γ-globulins, which prevents virus dissemination while retaining cell-to-cell spread. FIG. 3A (panels a-h) show images of the cell cultures after 48 hours.

Compound: O=S(=O)([O-])CCS.[Na+] [soluble MES, sodium 2-mercaptoethanesulfonate]
- inhibition of virus infection (number of plaques and average size): completely ineffective
